Laboratory results taken from US8394832B2, “Methods and compositions using immunomodulatory compounds for the treatment of immunodeficiency disorders” (Celgene Corporation, priority 2004, dated 2013).

Tested on: CD40
Test: FACS analysis of CD40 expression on B cells
Assay type: cell-based, human
Protocol: Human buffy coat (50 ml) was diluted with 50 ml sterile PBS (Ca^++, Mg^++ free), and mixed gently. A 25 ml aliquot of diluted buffy coat was transferred to each 50 ml centrifuge tube, and Histopaque-1077 (14 ml, #1077-1, Sigma) was gently layered into the bottom of the tube. The sample was centrifuged at 2,000 rpm for 30 min at room temperature. The interface containing mononuclear cells was transferred into 50 ml centrifuge tube, and washed once with PBS (1200 rpm, 5 min). The supernatant was discarded. Cell pellet was resuspended in Miltenyi buffer. Anti-CD19^+ microbeads were added to the suspension (10^7 cells in 80 μl of buffer, 20 μl antibody beads for 10^7 cells) and incubated for 15 min at 4° C. Cell pellet was washed once and resuspended in 1 ml Miltenyi buffer. The cell suspension was added to the magnetic column, washed with 10 ml Miltenyi buffer in the column. CD19^+ cells are released by 1 ml Miltenyi Buffer without magnetic field. CD19^+ cells were washed twice with RPMI complete medium. B cells (2×10^5) were plated in 96 well plate. […]
In addition to the suppression of IL-4 induced proliferation, CD40+IL-4 induced HLA-DR expression was also examined. B cells were treated by 1,3-dioxo-(2,6-dioxopiperidin-3-yl)-4-aminoisoindoline with CD40L+IL-4 for 72 hours, and the cell surface expression markers CD40 and HLA-DR were measured by FACS. […]

## Nc1cccc2c1C(=O)N(C1CCC(=O)NC1=O)C2=O (centres unmarked) [1,3-dioxo-(2,6-dioxopiperidin-3-yl)-4-aminoisoindoline]
B cells treated with BAFF (FIG. 11F)
  increase of CD40 expression: 60%
B cells treated with BAFF or LPS, 1 μM, 3 days (FIG. 2A)
  CD40 expression: upregulated
